Earlier results, collected in PMC3066546, “Development of modified nucleosides that have supremely high anti-HIV activity and low toxicity and prevent the emergence of resistant HIV mutants” (Proceedings of the Japan Academy. Series B, Physical and …, 2011).
pEC50: −log10 of the molar value. Where two headings read alike, the source gives them in different places.

Key:
HIV-1LAI = settings: MTT assay, MT-4 cells
HIV = test system: HIV; design: method as in PMID 7764216; settings: Table 1; for pEC50: anti-HIV
[1] = cytotoxic concentration, Table 1
[2] = test system: MDR (multidrug-resistant HIV); settings: MAGI assay
[3] = test system: 41/69/ 125/SG drug-resistant HIV; design: method as in PMID 11087576, PMID 11577734, PMID 15200030; settings: MAGI assay
M184V drug-resistant HIV = test system: M184V drug-resistant HIV; design: method as in PMID 11087576, PMID 11577734, PMID 15200030; settings: MAGI assay
[4] = test system: 41/215 drug-resistant HIV; design: method as in PMID 11087576, PMID 11577734, PMID 15200030; settings: MAGI assay
adenosine deaminase [5] = test system: adenosine deaminase; design: method as in PMID 563233, PMID 17548498, PMID 18487070
L74V drug-resistant HIV = test system: L74V drug-resistant HIV; design: method as in PMID 11087576, PMID 11577734, PMID 15200030; settings: MAGI assay
KH65R drug-resistant HIV = test system: KH65R drug-resistant HIV; design: method as in PMID 11087576, PMID 11577734, PMID 15200030; settings: MAGI assay
ICR mice = settings: for Mortality (%): six-week-old ICR male mice; for survival of mice: single dosage of 3–100 mg kg−1, both intravenous and oral
HXB2 (wild type HIV) = test system: HXB2 (wild type HIV); design: method as in PMID 11087576, PMID 11577734, PMID 15200030; settings: MAGI assay
[6] = molecular target: Y181C (non-nucleoside reverse transcriptase inhibitor-resistant); design: method as in PMID 11087576, PMID 11577734, PMID 15200030; settings: MAGI assay
[7] = test system: HIVs isolated from seven heavily drug-experienced patients; design: method as in PMID 11302824, PMID 12455229, PMID 15457679; settings: seven heavily drug-experienced AIDS patients, as efficiently as against wild-type HIV
adenosine deaminase [8] = settings: 4′EdA to 4′EdI, 4′Ed2AA to 4′EdG
M184I drug-resistant HIV = test system: M184I drug-resistant HIV; design: method as in PMID 11087576, PMID 11577734, PMID 15200030; settings: MAGI assay
[9] = test system: calf thymus DNA polymerase α; design: method as in earlier work; settings: calf thymus enzyme
[10] = test system: recombinant rat DNA polymerase β; design: method as in earlier work; settings: recombinant rat enzyme
HIV-1M184V = test system: HIV-1M184V; design: method as in PMID 18487070; settings: Table 7; read-out: Anti-HIV activity (MAGI assay, µg) HIV-1M184V
HIV-1MDR = test system: HIV-1MDR; design: method as in PMID 18487070; settings: Table 7; read-out: Anti-HIV activity (MAGI assay, µg) HIV-1MDR
HIV-1wild = test system: HIV-1wild; design: method as in PMID 18487070; settings: Table 7; read-out: Anti-HIV activity (MAGI assay, µg) HIV-1wild
[11] = intraveneous administration, 1 mg/Kg
[12] = intraveneous administration, 3 mg/Kg
[13] = intraveneous administration, 10 mg/Kg
[14] = intraveneous administration, 100 mg/Kg

Cc1cn([C@H]2C[C@H](O)[C@@](C)(CO)O2)c(=O)[nH]c1=O [C00001 Th, 4′-C-methylthymidine]
pEC50 (HIV-1LAI; Table 2): 5.14
CC50 (MT-4 cells; Table 2): 104000 nM
pEC50 (HIV): 5.14
CC50 [1]: 104000 nM

C#C[C@]1(CO)O[C@@H](n2cnc3c(N)ncnc32)C[C@@H]1O [4′EdA, 2′-deoxy-4′-C-ethynyladenosine]
pEC50 (HIV-1LAI; Table 2): 8.01
pEC50 [2]: 8.21
pEC50 [3]: 7.19
pEC50 (M184V drug-resistant HIV): 7.33
pEC50 [4]: 7.92
time to complete deamination by adenosine deaminase (adenosine deaminase [5]): 60 min
CC50 (MT-4 cells; Table 2): 16000 nM
CC50 (MT-4 cells; Table 3): 16000 nM
pEC50 (L74V drug-resistant HIV): 8.40
CC50 (Hela cells; Table 4, Hela cells): > 200000 nM
pEC50 (KH65R drug-resistant HIV): 8.48
Mortality (%) (ICR mice; [11]): 0%
Mortality (%) (ICR mice; [12]): 0%
Mortality (%) (ICR mice; [13]): 0%
Mortality (%) (ICR mice; [14]): 0%
Mortality (%) (ICR mice; oral administration, 1 mg/Kg): 0%
Mortality (%) (ICR mice; oral administration, 3 mg/Kg): 0%
Mortality (%) (ICR mice; oral administration, 10 mg/Kg): 0%
Mortality (%) (ICR mice; oral administration, 100 mg/Kg): 0%
survival of mice (ICR mice): All eight mice survived
pEC50 (HXB2 (wild type HIV)): 8.10
pEC50 [6]: 7.96
potency against HIVs isolated from patients [7]: highly potent
conversion by adenosine deaminase in mice (adenosine deaminase [8]): easily converted to 4′EdI
pEC50 (M184I drug-resistant HIV): 7.66

C#C[C@]1(CO)O[C@@H](n2ccc(N)nc2=O)C[C@@H]1O [4′EdC, 4′-C-ethynyl-2′-deoxycytidine]
pEC50 (HIV-1LAI; Table 2, listed as 4′-C-ethynyl-2′-deoxycytidine): 8.32
pEC50 [3]: 7.82
pEC50 (M184V drug-resistant HIV): 8.62
pEC50 [4]: 8.22
pEC50 (L74V drug-resistant HIV): 8.89
pEC50 (KH65R drug-resistant HIV): 9.10
pEC50 (HXB2 (wild type HIV)): 8.92
pEC50 [6]: 8.68
pEC50 (M184I drug-resistant HIV): 8.59

CC1(COP(=O)(O)OP(=O)(O)OP(=O)(O)O)OC(n2ccc(N)nc2=O)C(O)C1O (stereo not drawn) [4′MAraCTP]
chain termination of DNA polymerase α [9]: chain terminator
chain termination of DNA polymerase β [10]: chain terminator

C[C@]1(CO)O[C@@H](n2cnc3c(N)ncnc32)C[C@@H]1O [C00001 Ad, 4′-C-methyl-2′-deoxyadenosine]
pEC50 (HIV-1LAI; Table 2): 5.59
CC50 (MT-4 cells; Table 2): 2600 nM
SI (CC50/EC50) (HIV): 1.0
pEC50 (HIV): 5.59
CC50 [1]: 2600 nM

C#C[C@]1(CO)O[C@@H](n2ccc(N)nc2=O)[C@@H](O)[C@@H]1O [4′EaraC, 4′-C-ethynyl D-arabino-furanosyl cytosine]
pEC50 (HIV-1LAI; Table 2): 7.37
pEC50 [2]: 8.10
pEC50 [3]: 6.77
pEC50 (M184V drug-resistant HIV): 6.15
pEC50 [4]: 7.59
CC50 (MT-4 cells; Table 2): 2000 nM
pEC50 (L74V drug-resistant HIV): 7.59
CC50 (Hela cells; Table 4, Hela cells): > 200000 nM
pEC50 (KH65R drug-resistant HIV): 7.82
pEC50 (HXB2 (wild type HIV)): 8.15
pEC50 [6]: 7.80
pEC50 (M184I drug-resistant HIV): 6.32

C#C[C@]1(CO)O[C@@H](n2cnc3c(=O)[nH]c(N)nc32)C[C@@H]1O [4′EdG, 2′-deoxy-4′-C-ethynylguanosine]
pEC50 (HIV-1LAI; Table 3): 8.85
pEC50 [2]: 8.32
pEC50 [3]: 8.17
pEC50 (M184V drug-resistant HIV): 8.10
pEC50 [4]: 7.72
CC50 (MT-4 cells; Table 3): 1500 nM
pEC50 (L74V drug-resistant HIV): 8.92
CC50 (Hela cells; Table 4, Hela cells): 52000 nM
pEC50 (KH65R drug-resistant HIV): 9.00
Mortality (%) (ICR mice; [11]): 0%
Mortality (%) (ICR mice; [12]): 100%
Mortality (%) (ICR mice; [13]): 100%
Mortality (%) (ICR mice; [14]): 100%
survival days of mice after administration (ICR mice; intraveneous, 3 mg/Kg): 4 days
survival days of mice after administration (ICR mice; intraveneous, 10 mg/Kg): 2 days
survival days of mice after administration (ICR mice; intraveneous, 100 mg/Kg): 1 days
Mortality (%) (ICR mice; oral administration, 1 mg/Kg): 0%
Mortality (%) (ICR mice; oral administration, 3 mg/Kg): 100%
Mortality (%) (ICR mice; oral administration, 10 mg/Kg): 100%
Mortality (%) (ICR mice; oral administration, 100 mg/Kg): 100%
survival days of mice after administration (ICR mice; oral, 3 mg/Kg): 4 days
survival days of mice after administration (ICR mice; oral, 10 mg/Kg): 4 days
survival days of mice after administration (ICR mice; oral, 100 mg/Kg): 1 days
pEC50 (HXB2 (wild type HIV)): 8.15
pEC50 [6]: 8.00
potency against HIVs isolated from patients [7]: highly potent
pEC50 (M184I drug-resistant HIV): 8.39

C[C@]1(CO)O[C@@H](n2ccc(N)nc2=O)C[C@@H]1O [C00001 Cy, 4′-C-methyl-2′-deoxycytidine]
pEC50 (HIV-1LAI; Table 2): 7.82
pEC50 [2]: 8.48
pEC50 (M184V drug-resistant HIV): 6.70
CC50 (MT-4 cells; Table 2): 1000 nM
pEC50 (L74V drug-resistant HIV): 8.21
SI (CC50/EC50) (HIV): 1.8
pEC50 (HIV): 7.14
CC50 (Hela cells; Table 4, Hela cells): > 200000 nM
CC50 [1]: 130 nM
pEC50 (KH65R drug-resistant HIV): 8.15
pEC50 (HXB2 (wild type HIV)): 8.24
pEC50 (M184I drug-resistant HIV): 6.13

Nc1ccn([C@H]2CC[C@@H](CO)O2)c(=O)n1 [ddC, reference compound]
pEC50 [2]: 5.26
pEC50 [3]: 5.89
pEC50 (M184V drug-resistant HIV): 5.66
pEC50 (L74V drug-resistant HIV): 5.82
CC50 (Hela cells): > 100000 nM
pEC50 (KH65R drug-resistant HIV): 5.52
pEC50 (HXB2 (wild type HIV)): 6.70

C#C[C@@]1(CO)C=C[C@H](n2cnc3c(N)nc(F)nc32)O1 [4′Ed42FA, 2′,3′-didehydrodideoxy-4′-C-ethynyl-2-fluoroadenosine]
pEC50 (HIV-1M184V): 5.74
pEC50 (HIV-1MDR): 6.82
pEC50 (HIV-1wild): 6.10

O=c1[nH]cnc2c1ncn2[C@H]1CC[C@@H](CO)O1 [ddI, reference compound]
pEC50 [2]: 4.60
pEC50 [3]: 4.91
pEC50 (M184V drug-resistant HIV): 5.00
pEC50 [4]: 5.44
pEC50 (L74V drug-resistant HIV): 4.71
CC50 (Hela cells): > 100000 nM
pEC50 (KH65R drug-resistant HIV): 4.90
pEC50 (HXB2 (wild type HIV)): 5.41

C#C[C@]1(CO)O[C@@H](n2cnc3c(N)nc(Cl)nc32)C[C@@H]1O [4′Ed2ClA, 2′-deoxy-4′-C-ethynyl-2-chloroadenosine]
pEC50 (HIV-1M184V): 8.00
pEC50 (HIV-1MDR): 8.08
pEC50 (HIV-1wild): 8.72

Nc1ccn([C@@H]2CS[C@H](CO)O2)c(=O)n1 [Compound 3TC, 2′,3′-dideoxy-3′-thia-L-cytidine, reference compound]
pEC50 (HIV-1M184V): < 4.00
pEC50 (HIV-1LAI; Table 2): 7.00
pEC50 [2]: 5.96
pEC50 [3]: 5.00
pEC50 (M184V drug-resistant HIV): < 4.00
pEC50 (HIV-1MDR): 5.55
CC50 (MT-4 cells): > 100000 nM
CC50 (Hela cells): > 100000 nM
pEC50 (HIV-1wild): 6.00
pEC50 (HXB2 (wild type HIV)): 6.15
pEC50 (M184I drug-resistant HIV): < 4.00

CC1(COP(=O)(O)OP(=O)(O)OP(=O)(O)O)OC(n2ccc(N)nc2=O)CC1O (stereo not drawn) [4′MdCTP]
chain termination of DNA polymerase α [9]: chain terminator
chain termination of DNA polymerase β [10]: chain terminator

C#C[C@]1(CO)O[C@@H](n2cnc3c(O)ncnc32)C[C@@H]1O [4′EdI, 2′-deoxy-4′-C-ethynylinosine]
pEC50 (HIV-1LAI; Table 3): 6.82
pEC50 [2]: 6.29
pEC50 [3]: 5.66
pEC50 (M184V drug-resistant HIV): 5.80
pEC50 [4]: 5.89
CC50 (MT-4 cells; Table 3): 216000 nM
pEC50 (L74V drug-resistant HIV): 6.21
CC50 (Hela cells; Table 4, Hela cells): > 200000 nM
pEC50 (KH65R drug-resistant HIV): 6.60
Mortality (%) (ICR mice; [11]): 0%
Mortality (%) (ICR mice; [12]): 0%
Mortality (%) (ICR mice; [13]): 0%
Mortality (%) (ICR mice; [14]): 0%
Mortality (%) (ICR mice; oral administration, 1 mg/Kg): 0%
Mortality (%) (ICR mice; oral administration, 3 mg/Kg): 0%
Mortality (%) (ICR mice; oral administration, 10 mg/Kg): 0%
Mortality (%) (ICR mice; oral administration, 100 mg/Kg): 0%
survival of mice (ICR mice): All eight mice survived
pEC50 (HXB2 (wild type HIV)): 6.09
pEC50 (M184I drug-resistant HIV): 5.82

C#C[C@@]1(CO)CC[C@H](n2cnc3c(N)nc(F)nc32)O1 [4′Edd2FA, 2′,3′-dideoxy-4′-C-ethynyl-2-fluoroadenosine]
pEC50 (HIV-1M184V): 4.01
pEC50 (HIV-1MDR): 5.06
pEC50 (HIV-1wild): 6.03

Cc1cn([C@H]2C=C[C@@H](CO)O2)c(=O)[nH]c1=O [d4T, 2′,3′-didehydro-3′-deoxythymidine, reference compound]
pEC50 (HIV-1M184V): 5.25
pEC50 (HIV-1MDR): 4.19
SI (CC50/EC50) (HIV): >120
pEC50 (HIV): 5.39
CC50 [1]: > 500000 nM
pEC50 (HIV-1wild): 5.12
